Measurements: PubChem BioAssay (NCI)
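Test compounds were applied to cells in 96-well plates for 48 hours at 5 doses. GI50 marks 50% less growth. TGI denotes the concentration required for complete inhibition of growth.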

Columns and labels:
Experiment in all cases: NCI anticancer screen, dose series, 48 h
NCI-H226 lung = system: NCI-H226 lung
NCI-H23 lung = system: NCI-H23 lung
NCI-H460 lung = system: NCI-H460 lung
NCI-H522 lung = system: NCI-H522 lung
OVCAR-3 ovarian = system: OVCAR-3 ovarian
OVCAR-4 ovarian = system: OVCAR-4 ovarian
OVCAR-5 ovarian = system: OVCAR-5 ovarian
OVCAR-8 ovarian = system: OVCAR-8 ovarian
PC-3 prostate = system: PC-3 prostate
RXF 393 renal = system: RXF 393 renal
SF-268 CNS = system: SF-268 CNS
SF-295 CNS = system: SF-295 CNS
SF-539 CNS = system: SF-539 CNS
SK-MEL-2 melanoma = system: SK-MEL-2 melanoma
SK-MEL-28 melanoma = system: SK-MEL-28 melanoma
SK-OV-3 ovarian = system: SK-OV-3 ovarian
SN12C renal = system: SN12C renal
SNB-19 CNS = system: SNB-19 CNS
SNB-75 CNS = system: SNB-75 CNS
SR leukemia = system: SR leukemia
SW-620 colon = system: SW-620 colon
T-47D breast = system: T-47D breast
TK-10 renal = system: TK-10 renal
U251 CNS = system: U251 CNS
UACC-257 melanoma = system: UACC-257 melanoma
UACC-62 melanoma = system: UACC-62 melanoma
UO-31 renal = system: UO-31 renal

## COc1ccccc1N1CCN(C2=NN=C(c3cccc(Cl)c3)c3ccccc3C2)CC1
NCI-H226 lung
  TGI: > 36300 nM
NCI-H23 lung
  GI50: 571 nM
  TGI: > 100000 nM
NCI-H460 lung
  GI50: 351 nM
  TGI: 1940 nM
NCI-H522 lung
  GI50: 270 nM
OVCAR-3 ovarian
  GI50: 282 nM
  TGI: 793 nM
OVCAR-4 ovarian
  GI50: 1190 nM
  TGI: > 100000 nM
OVCAR-5 ovarian
  GI50: 498 nM
  TGI: > 37200 nM
OVCAR-8 ovarian
  GI50: 438 nM
  TGI: > 100000 nM
PC-3 prostate
  GI50: 443 nM
  TGI: > 33900 nM
RXF 393 renal
  GI50: 270 nM
  TGI: 2760 nM
SF-268 CNS
  GI50: 566 nM
  TGI: > 100000 nM
SF-295 CNS
  GI50: 334 nM
  TGI: 3440 nM
SF-539 CNS
  GI50: 277 nM
  TGI: 847 nM
SK-MEL-2 melanoma
  GI50: 743 nM
  TGI: > 45400 nM
SK-MEL-28 melanoma
  GI50: 2470 nM
  TGI: > 100000 nM
SK-OV-3 ovarian
  GI50: 637 nM
  TGI: 97400 nM
SN12C renal
  GI50: 474 nM
  TGI: > 100000 nM
SNB-19 CNS
  GI50: 420 nM
  TGI: > 100000 nM
SNB-75 CNS
  GI50: 491 nM
  TGI: 20300 nM
SR leukemia
  GI50: 260 nM
  TGI: > 100000 nM
SW-620 colon
  GI50: 439 nM
  TGI: > 100000 nM
T-47D breast
  GI50: 1130 nM
  TGI: > 100000 nM
TK-10 renal
  GI50: 2320 nM
  TGI: > 43200 nM
U251 CNS
  GI50: 383 nM
  TGI: > 100000 nM
UACC-257 melanoma
  GI50: 2370 nM
  TGI: > 100000 nM
UACC-62 melanoma
  GI50: 509 nM
  TGI: > 100000 nM
UO-31 renal
  GI50: 708 nM
  TGI: > 100000 nM
